Assay results: the NIST ThermoML archive (doi:10.1016/j.jct.2019.04.010)

Assay: xn = mol fraction of the nth substance listed
Conditions: 100 kPa, Liquid; for viscosity: Concentric cylinders viscometry; for mass density: Vibrating tube method

CCCCn1cc[n+](C)c1.O=[N+]([O-])[O-] [1-butyl-3-methylimidazolium nitrate] + CC(C)O
Conditions | mass density [kg/m3] | viscosity [mPa·s]
293.15 K, x1 = 0.0815 | 853.9 | 4.18
293.15 K, x1 = 0.1596 | 906.3 | 6.88
293.15 K, x1 = 0.2405 | 951.1 | 10.99
293.15 K, x1 = 0.3495 | 1000.3 | 18
293.15 K, x1 = 0.4405 | 1034 | 26
293.15 K, x1 = 0.5607 | 1070.7 | 39.8
293.15 K, x1 = 0.6506 | 1093.8 | 53.28
293.15 K, x1 = 0.7413 | 1114.1 | 69.94
293.15 K, x1 = 0.8515 | 1135 | 105.6
293.15 K, x1 = 0.9396 | 1149.7 | 157.7
293.15 K, x1 = 1 | 1158.3 | 223.54
298.15 K, x1 = 0.0815 | 849.9 | 3.66
298.15 K, x1 = 0.1596 | 902.5 | 5.95
298.15 K, x1 = 0.2405 | 947.4 | 9.26
298.15 K, x1 = 0.3495 | 996.7 | 15.42
298.15 K, x1 = 0.4405 | 1030.5 | 22
298.15 K, x1 = 0.5607 | 1067.4 | 33.04
298.15 K, x1 = 0.6506 | 1090.6 | 42.9
298.15 K, x1 = 0.7413 | 1110.9 | 55.5
298.15 K, x1 = 0.8515 | 1131.9 | 81.6
298.15 K, x1 = 0.9396 | 1146.6 | 122.4
298.15 K, x1 = 1 | 1155.2 | 168.97
303.15 K, x1 = 0.0815 | 846 | 3.29
303.15 K, x1 = 0.1596 | 898.7 | 5.22
303.15 K, x1 = 0.2405 | 943.8 | 8
303.15 K, x1 = 0.3495 | 993.2 | 12.83
303.15 K, x1 = 0.4405 | 1027.2 | 17.76
303.15 K, x1 = 0.5607 | 1064.2 | 26.4
303.15 K, x1 = 0.6506 | 1087.4 | 34.49
303.15 K, x1 = 0.7413 | 1107.9 | 45.29
303.15 K, x1 = 0.8515 | 1129 | 63.3
303.15 K, x1 = 0.9396 | 1143.6 | 90.3
303.15 K, x1 = 1 | 1152.3 | 125.36
308.15 K, x1 = 0.0815 | 841.9 | 2.93
308.15 K, x1 = 0.1596 | 894.8 | 4.55
308.15 K, x1 = 0.2405 | 940.1 | 6.55
308.15 K, x1 = 0.3495 | 989.6 | 10.13
308.15 K, x1 = 0.4405 | 1023.7 | 14.06
308.15 K, x1 = 0.5607 | 1060.8 | 20.79
308.15 K, x1 = 0.6506 | 1084.2 | 27.05
308.15 K, x1 = 0.7413 | 1104.7 | 36.2
308.15 K, x1 = 0.8515 | 1126 | 50.5
308.15 K, x1 = 0.9396 | 1140.6 | 72.4
308.15 K, x1 = 1 | 1149.3 | 96.74
313.15 K, x1 = 0.0815 | 837.9 | 2.53
313.15 K, x1 = 0.1596 | 891.1 | 3.95
313.15 K, x1 = 0.2405 | 936.5 | 5.7
313.15 K, x1 = 0.3495 | 986.4 | 8.96
313.15 K, x1 = 0.4405 | 1020.6 | 12.29
313.15 K, x1 = 0.5607 | 1057.8 | 17.93
313.15 K, x1 = 0.6506 | 1081.3 | 23.42
313.15 K, x1 = 0.7413 | 1101.7 | 30.6
313.15 K, x1 = 0.8515 | 1123.2 | 42.3
313.15 K, x1 = 0.9396 | 1137.8 | 58.7
313.15 K, x1 = 1 | 1146.5 | 75.12
318.15 K, x1 = 0.0815 | 833.7 | 2.25
318.15 K, x1 = 0.1596 | 887.1 | 3.53
318.15 K, x1 = 0.2405 | 932.8 | 5.15
318.15 K, x1 = 0.3495 | 982.9 | 7.91
318.15 K, x1 = 0.4405 | 1017.3 | 10.89
318.15 K, x1 = 0.5607 | 1054.7 | 15.75
318.15 K, x1 = 0.6506 | 1078.3 | 20.46
318.15 K, x1 = 0.7413 | 1098.9 | 26.05
318.15 K, x1 = 0.8515 | 1120.5 | 35.1
318.15 K, x1 = 0.9396 | 1135 | 45.9
318.15 K, x1 = 1 | 1143.8 | 56.28
323.15 K, x1 = 0.0815 | 829.5 | 2
323.15 K, x1 = 0.1596 | 883.3 | 3.09
323.15 K, x1 = 0.2405 | 929.2 | 4.61
323.15 K, x1 = 0.3495 | 979.5 | 7.17
323.15 K, x1 = 0.4405 | 1014.1 | 9.8
323.15 K, x1 = 0.5607 | 1051.7 | 14.17
323.15 K, x1 = 0.6506 | 1075.4 | 18.14
323.15 K, x1 = 0.7413 | 1096.1 | 23.09
323.15 K, x1 = 0.8515 | 1117.8 | 30.31
323.15 K, x1 = 0.9396 | 1132.5 | 37.81
323.15 K, x1 = 1 | 1141.2 | 45.17
